Activity calls are given as the source filed them. No cut-off for these calls is given here.
Legend:
MDA-MB-231 [1] = experiment: Cytotoxicity against human MDA-MB-231 cells at >25 uM after 24 hrs by CCK8 assay; assay type: functional, cell-based
MCF7 [2] = experiment: Cytotoxicity against human MCF7 cells at >25 uM after 24 hrs by CCK8 assay; assay type: functional, cell-based
[3] = Absorption property of compound in methanol assessed as maximal wavelength at 0.5 to 4 uM by UV-vis spectrophotometry; assay type: physicochemical; settings: dose 0.5-4 µM
[4] = Emission property of compound in methanol assessed as maximal wavelength at 0.5 to 4 uM by […]; assay type: physicochemical; settings: dose 0.5-4 µM
MCF7 [5] = experiment: Cytotoxicity against human MCF7 cells at; assay type: functional, cell-based; settings: dose < 2.0 µM, time 24.0 hrs
MDA-MB-231 [6] = experiment: Cytotoxicity against human MDA-MB-231 cells at; assay type: functional, cell-based; settings: dose < 2.0 µM, time 24.0 hrs
MCF7 [7] = experiment: Cytotoxicity against human MCF7 cells assessed as survival rate at 20 uM after 24 hrs by CCK8 assay relative to control; assay type: functional; settings: read-out: Survival
MDA-MB-231 [8] = experiment: Cytotoxicity against human MDA-MB-231 cells assessed as survival rate at 20 uM after 24 hrs by CCK8 assay relative to control; assay type: functional; settings: read-out: Survival
[9] = Drug uptake in human MCF7 cells assessed as fold increase in fluorescence intensity at 2 uM incubated for 2 hrs by CLSM analysis relative to control; assay type: functional
[10] = Drug uptake in human MDA-MB-231 cells assessed as fold increase in fluorescence intensity at 2 uM incubated for 2 hrs by CLSM analysis relative to control; assay type: functional
[11] = Biodistribution in liver of NCG mouse xenografted with human MCF7 cells at 15 uM, iv measured after 4 hrs by IVIS analysis; assay type: ADME, organism-based; settings: in vivo
[12] = Biodistribution in tumor of NCG mouse xenografted with human MCF7 cells at 15 uM, iv measured for 0.5 to 72 hrs by IVIS analysis; assay type: ADME, organism-based, Neoplasm; settings: in vivo, time 0.5-72 hrs
[13] = Biodistribution in tumor of NCG mouse xenografted with human MCF7 cells assessed as increase in retention time at 15 uM, iv measured for 0.5 to 72 hrs by IVIS analysis; assay type: ADME, organism-based, Neoplasm; settings: in vivo, time 0.5-72 hrs
[14] = Ratio of drug uptake in tumor to liver of NCG mouse xenografted with human MCF7 cells at 15 uM, iv measured after 72 hrs by IVIS analysis; assay type: ADME, organism-based; settings: in vivo
[15] = Biodistribution in tumor of NCG mouse xenografted with human MDA-MB-231 cells assessed as increase in retention time at 15 uM, iv measured for 0.5 to 72 hrs by IVIS analysis; assay type: ADME, organism-based, Neoplasm; settings: in vivo, time 0.5-72 hrs
[16] = Biodistribution in tumor of NCG mouse xenografted with human MDA-MB-231 cells assessed as maximum fluorescence intensity at 15 uM, iv measured for 2 to 48 hrs by IVIS analysis; assay type: ADME, organism-based, Neoplasm; settings: in vivo, time 2-48 hrs
[17] = Biodistribution in tumor of NCG mouse xenografted with human MDA-MB-231 cells 15 uM, iv measured upto 72 hrs by IVIS analysis; assay type: ADME, organism-based, Neoplasm; settings: in vivo
[18] = Biodistribution in tumor of NCG mouse xenografted with human MDA-MB-231 cells assessed as fluorescence intensity at 15 uM, iv measured after 4 hrs by IVIS analysis; assay type: ADME, organism-based, Neoplasm; settings: in vivo
[19] = Ratio of drug uptake in tumor to liver of NCG mouse xenografted with human MDA-MB-231 cells at 15 uM, iv measured upto 72 hrs by IVIS analysis; assay type: ADME, organism-based; settings: in vivo
[20] = Metabolic stability in mouse liver microsomes assessed as half life; assay type: ADME, Microsome
[21] = Metabolic stability in mouse liver microsomes assessed as intrinsic clearance; assay type: ADME, Microsome; settings: read-out: CLH
[22] = Metabolic stability in mouse liver microsomes assessed as hepatic clearance rate; assay type: ADME, Microsome; settings: read-out: CLH
[23] = Metabolic stability in human liver microsomes assessed as half life; assay type: ADME, Microsome
[24] = Metabolic stability in human liver microsomes assessed as intrinsic clearance; assay type: ADME, Microsome; settings: read-out: CLH
[25] = Metabolic stability in human liver microsomes assessed as hepatic clearance rate; assay type: ADME, Microsome; settings: read-out: CLH
[26] = Half life in ICR mouse at 2 mg/kg, iv measured upto 24 hrs by LC-MS/MS analysis; assay type: ADME, organism-based; settings: in vivo
[27] = Tlast in ICR mouse at 2 mg/kg, iv measured upto 24 hrs by LC-MS/MS analysis; assay type: ADME, organism-based; settings: in vivo
[28] = C0 in ICR mouse at 2 mg/kg, iv measured upto 24 hrs by LC-MS/MS analysis; assay type: ADME, organism-based; settings: in vivo
[29] = AUC (0 to t) in ICR mouse at 2 mg/kg, iv measured upto 24 hrs by LC-MS/MS analysis; assay type: ADME, organism-based; settings: in vivo
[30] = AUC (0 to infinity) in ICR mouse at 2 mg/kg, iv measured upto 24 hrs by LC-MS/MS analysis; assay type: ADME, organism-based; settings: in vivo
[31] = MRT (0 to t) in ICR mouse at 2 mg/kg, iv measured upto 24 hrs by LC-MS/MS analysis; assay type: ADME, organism-based; settings: in vivo
[32] = MRT (0 to infinity) in ICR mouse at 2 mg/kg, iv measured upto 24 hrs by LC-MS/MS analysis; assay type: ADME, organism-based; settings: in vivo
[33] = Volume of distribution at steady state in ICR mouse at 2 mg/kg, iv measured upto 24 hrs by LC-MS/MS analysis; assay type: ADME, organism-based; settings: in vivo, read-out: Vdss
[34] = Apparent volume of distribution in ICR mouse at 2 mg/kg, iv measured upto 24 hrs by LC-MS/MS analysis; assay type: ADME, organism-based; settings: in vivo, read-out: Vz
[35] = Clearance in ICR mouse at 2 mg/kg, iv measured upto 24 hrs by LC-MS/MS analysis; assay type: ADME, organism-based; settings: in vivo
MDA-MB-231 [36] = experiment: Cytotoxicity against human MDA-MB-231 cells assessed as survival rate upto 20 uM after 24 hrs by CCK8 assay relative to control; assay type: functional; settings: up to 20 µM
MCF7 [37] = experiment: Cytotoxicity against human MCF7 cells at >=5 uM after 24 hrs by CCK8 assay; assay type: functional, cell-based
MCF7 [38] = experiment: Cytotoxicity against human MCF7 cells at 20 uM after 24 hrs by CCK8 assay relative to control; assay type: functional
[39] = Biodistribution in liver of NCG mouse xenografted with human MCF7 cells at 15 uM, iv measured after 0.5 hrs by IVIS analysis; assay type: ADME, organism-based; settings: in vivo
[40] = Biodistribution in tumor of NCG mouse xenografted with human MCF7 cells at 15 uM, iv measured after 1 to 2 hrs by IVIS analysis; assay type: ADME, organism-based, Neoplasm; settings: in vivo, time 1-2 hrs
[41] = Biodistribution in tumor of NCG mouse xenografted with human MCF7 cells assessed as maximum fluorescence intensity at 15 uM, iv measured after 8 hrs by IVIS analysis; assay type: ADME, organism-based, Neoplasm; settings: in vivo
[42] = Biodistribution in liver of NCG mouse xenografted with human MDA-MB-231 cells at 15 uM, iv measured for 24 hrs by IVIS analysis; assay type: ADME, organism-based; settings: in vivo
[43] = Biodistribution in tumor of NCG mouse xenografted with human MDA-MB-231 cells at 15 uM, iv measured for 24 hrs by IVIS analysis; assay type: ADME, organism-based, Neoplasm; settings: in vivo
[44] = Biodistribution in tumor of NCG mouse xenografted with human MDA-MB-231 cells assessed as maximum fluorescence intensity at 15 uM, iv measured for 24 hrs by IVIS analysis; assay type: ADME, organism-based, Neoplasm; settings: in vivo
[45] = Ratio of drug uptake in tumor to liver of NCG mouse xenografted with human MDA-MB-231 cells at 15 uM, iv measured after 48 hrs by IVIS analysis; assay type: ADME, organism-based; settings: in vivo
MCF7 [46] = experiment: Antitumor activity against human MCF7 cells xenografted in mouse assessed as decrease in tumor volume at 10 mg/kg, iv administered on days 1, 6, 11 and 16 measured on day 10; assay type: functional, organism-based; settings: time 10.0 day
MCF7 [47] = experiment: Antitumor activity against human MCF7 cells xenografted in mouse assessed as tumor shrinkage at 20 mg/kg, iv administered on days 1, 6, 11 and 16 measured on day 10; assay type: functional, organism-based; settings: time 10.0 day
MCF7 [48] = experiment: Antitumor activity against human MCF7 cells xenografted in mouse assessed as obvious effect at 10 to 20 mg/kg, iv administered on days 1, 6, 11 and 16 measured on day 21; assay type: functional, organism-based; settings: dose 10-20 mg/kg, time 21.0 day
MCF7 [49] = experiment: Antitumor activity against human MCF7 cells xenografted in mouse assessed as tumor growth inhibition administered intravenously on days 1, 6, 11 and 16 measured on day 21; assay type: functional; settings: dose 10-20 mg/kg, route iv, time 21.0 day
[50] = Toxicity in mouse xenografted with human MCF7 cells assessed as change in body weight at 10 to 20 mg/kg, iv administered on days 1, 6, 11 and 16 measured for 21 days; assay type: organism-based; settings: in vivo, 504 h, dose 10-20 mg/kg, time 21 day

Structure (SMILES)	Activity (MDA-MB-231 [1])	Activity (MCF7 [2])	Activity [3]	Activity [4]	Activity (MCF7 [5])	Activity (MDA-MB-231 [6])	fold change (FC) [9]	fold change (FC) [10]	Ratio [14]	half-life [20]	microsomal CLint [21]	CLint scaled [22]	half-life [23]	microsomal CLint [24]	CLint scaled [25]	half-life [26]	Tlast [27]	C0 at 24 h [28]	AUC(0-t) at 24 h [29]	AUC(0-inf) [30]	further results
CN(CCCN1CCN(C(=O)CN2CCN(CC(=O)O)CCN(CC(=O)O)CCN(CC(=O)O)CC2)CC1)c1ccc2nccc(C(=O)NCC(=O)N3CC(F)(F)C[C@H]3C#N)c2c1	Active	Active	–	–	–	–	–	–	–	–	–	–	–	–	–	–	–	–	–	–	–
CN(CCCN1CCN(C(=O)CCOCCOCCOCCOCCn2cc(CCCN3/C(=C/C=C4\CCCC(/C=C/C5=[N+](CCCc6cn(CCOCCOCCOCCOCCC(=O)N7CCN(CCCN(C)c8ccc9nccc(C(=O)NCC(=O)N%10CC(F)(F)C[C@H]%10C#N)c9c8)CC7)nn6)c6ccccc6C5(C)C)=C4Cl)C(C)(C)c4ccccc43)nn2)CC1)c1ccc2nccc(C(=O)NCC(=O)N3CC(F)(F)C[C@H]3C#N)c2c1	–	–	784 nm	823 nm	inactive	inactive	45	81	2.07	4.4 min	313 µL/min/mg	74.5 L/h/kg	3.2 min	430 µL/min/mg	23.2 L/h/kg	690 min	24 h	16.8 µg/mL	3.6 µg·h/mL	3.65 µg·h/mL	viability at 20 µM (MCF7 [7]): 60%; viability at 20 µM (MDA-MB-231 [8]): 67%; Drug uptake [11]: Not_active; Drug uptake [12]: Active; Drug uptake [13]: Active; Drug uptake [15]: Active; Flu intensity [16]: 2.5 10^8No_unit; Drug uptake [17]: Active; Flu intensity [18]: > 2 10^8No_unit; Ratio [19]: > 3; MRT last at 24 h [31]: 36.2 min; MRT inf [32]: 63.6 min; Vd [33]: 0.583 L/kg; Vd [34]: 9.15 L/kg; clearance [35]: 0.54 L/h/kg
C#CCCCN1/C(=C/C=C2\CCCC(/C=C/C3=[N+](CCCc4cn(CCOCCOCCOCCOCCC(=O)N5CCN(CCCN(C)c6ccc7nccc(C(=O)NCC(=O)N8CC(F)(F)C[C@H]8C#N)c7c6)CC5)nn4)c4ccccc4C3(C)C)=C2Cl)C(C)(C)c2ccccc21	–	–	783 nm	820 nm	inactive	inactive	280	431	2.43	4.3 min	325 µL/min/mg	77.3 L/h/kg	5.5 min	253 µL/min/mg	13.7 L/h/kg	12.5 min	1.5 h	0.829 µg/mL	0.165 µg·h/mL	0.166 µg·h/mL	Survival (MDA-MB-231 [36]): ~80%; Activity (MCF7 [37]): Active; Activity (MCF7 [38]): 4.5%; Drug uptake [39]: Not_active; Drug uptake [40]: Active; Flu intensity [41]: 6.13 10^7No_unit; Drug uptake [42]: Not_active; Drug uptake [43]: Active; Flu intensity [44]: 8.43 10^7No_unit; Ratio [45]: 4.47; MRT last at 24 h [31]: 10.4 min; MRT inf [32]: 11.4 min; Vd [33]: 2.45 L/kg; Vd [34]: 3.92 L/kg; clearance [35]: 12.2 L/h/kg; Activity (MCF7 [46]): inactive; Activity (MCF7 [47]): Active; Activity (MCF7 [48]): Active; inhibition (MCF7 [49]): Dose-dependent-effect; Activity [50]: Non-toxic
CN(CCCN1CCN(C(=O)OC(C)(C)C)CC1)c1ccc2nccc(C(=O)NCC(=O)N3CC(F)(F)C[C@H]3C#N)c2c1	Active	Active	–	–	–	–	–	–	–	–	–	–	–	–	–	–	–	–	–	–	–
